# Test results: ChEMBL document CHEMBL1201862, “PubChem BioAssay data set” (2004)
# Calls of active or inactive are those of the source.
# Assays:
# [1] = target: Cytochrome P450 2D6 (Homo sapiens, UniProt P10635);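 note: CYP2D6 member of a cytochrome P450 panel assay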
# [2] = cytotoxicity toward NIH3T3 fibroblasts, dose response, counter-screen, cell-based, ATP luminescence, mouse fibroblasts (AID 2010); assay type: functional;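 note: cells exposed to compound for about 90 hours before reading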
# [3] = inhibitors of intracellular T. cruzi replication, confirmation, NIH3T3 host cells, beta-gal luminescence (AID 2044); assay type: functional, cell-based;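 note: intracellular parasites grown in NIH/3T3 mouse fibroblasts as host cells; luminescent beta-galactosidase reporter signal from transgenic T. cruzi replicating inside host cells; inhibitors lower the luminescence signal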
# [4] = target: Cytochrome P450 2C19 (Homo sapiens, UniProt P33261); test: Cytochrome panel assay with activity outcomes. Panel member name: p450-cyp2c19 Compounds with AC50 equal or less than 10 uM are considered active; assay type: functional
# [5] = target: Cytochrome P450 3A4 (Homo sapiens, UniProt P08684);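 note: CYP3A4 tested as one member of a cytochrome P450 panel screen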
# [6] = target: Cytochrome P450 2C9 (Homo sapiens, UniProt P11712)
# [7] = tested on: Streptococcus sp. 'group A'; test: growth inhibition of control SK(-) GAS strain, dose response, counter-screen for streptokinase expression inhibitor project, luminescence, kanamycin, BacTiterGlo, confirmation (AID 1900); assay type: functional, organism-based
# [8] = tested on: Streptococcus; test: Group A Streptococcus viability loss, dose response, counter-screen for streptokinase expression inhibitor project, luminescence, BacTiterGlo (AID 1915); assay type: functional, organism-based;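 note: potency for reduction of bacterial viability or growth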
# Sequence of Cytochrome P450 2D6 (P10635 whole entry): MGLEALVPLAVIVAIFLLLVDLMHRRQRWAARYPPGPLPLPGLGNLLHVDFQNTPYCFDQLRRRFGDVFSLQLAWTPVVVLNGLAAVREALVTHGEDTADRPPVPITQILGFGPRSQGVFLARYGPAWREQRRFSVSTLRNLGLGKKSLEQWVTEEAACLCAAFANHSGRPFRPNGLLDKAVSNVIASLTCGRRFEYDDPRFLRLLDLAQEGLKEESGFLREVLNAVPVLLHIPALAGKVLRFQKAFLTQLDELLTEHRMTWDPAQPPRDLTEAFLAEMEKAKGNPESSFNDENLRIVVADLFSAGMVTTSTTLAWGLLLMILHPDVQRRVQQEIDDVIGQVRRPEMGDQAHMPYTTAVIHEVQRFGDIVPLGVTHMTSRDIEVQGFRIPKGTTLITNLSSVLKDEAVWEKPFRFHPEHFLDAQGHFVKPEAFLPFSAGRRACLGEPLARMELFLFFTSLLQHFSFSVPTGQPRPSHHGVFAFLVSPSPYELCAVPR
# Sequence of Cytochrome P450 3A4 (P08684 whole entry): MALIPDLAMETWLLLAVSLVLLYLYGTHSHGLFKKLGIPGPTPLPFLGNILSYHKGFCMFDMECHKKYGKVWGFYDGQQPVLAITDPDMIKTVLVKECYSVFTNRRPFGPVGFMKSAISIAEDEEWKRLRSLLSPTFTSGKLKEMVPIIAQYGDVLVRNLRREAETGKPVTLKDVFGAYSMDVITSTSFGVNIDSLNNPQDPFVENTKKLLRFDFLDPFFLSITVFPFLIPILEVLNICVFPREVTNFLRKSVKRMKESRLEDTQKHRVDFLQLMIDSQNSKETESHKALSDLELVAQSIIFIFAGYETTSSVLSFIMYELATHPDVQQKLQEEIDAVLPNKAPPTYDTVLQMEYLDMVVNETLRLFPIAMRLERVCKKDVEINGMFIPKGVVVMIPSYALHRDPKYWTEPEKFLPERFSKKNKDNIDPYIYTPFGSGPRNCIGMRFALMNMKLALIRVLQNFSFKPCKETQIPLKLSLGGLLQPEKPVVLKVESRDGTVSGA
# Sequence of Cytochrome P450 2C19 (P33261 whole entry): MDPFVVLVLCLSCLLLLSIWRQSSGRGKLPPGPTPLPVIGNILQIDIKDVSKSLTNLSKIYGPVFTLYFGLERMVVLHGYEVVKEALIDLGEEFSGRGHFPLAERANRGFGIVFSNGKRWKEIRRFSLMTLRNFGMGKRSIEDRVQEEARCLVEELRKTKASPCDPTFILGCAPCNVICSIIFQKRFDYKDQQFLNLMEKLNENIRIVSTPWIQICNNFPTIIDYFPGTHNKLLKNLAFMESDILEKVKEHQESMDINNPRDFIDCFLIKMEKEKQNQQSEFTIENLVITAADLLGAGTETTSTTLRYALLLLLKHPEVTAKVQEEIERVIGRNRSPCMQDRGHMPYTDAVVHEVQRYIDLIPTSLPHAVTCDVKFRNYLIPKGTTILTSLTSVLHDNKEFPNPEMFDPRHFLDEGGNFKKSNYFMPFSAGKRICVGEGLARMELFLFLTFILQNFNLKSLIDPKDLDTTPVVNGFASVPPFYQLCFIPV
# Sequence of Cytochrome P450 2C9 (P11712 whole entry): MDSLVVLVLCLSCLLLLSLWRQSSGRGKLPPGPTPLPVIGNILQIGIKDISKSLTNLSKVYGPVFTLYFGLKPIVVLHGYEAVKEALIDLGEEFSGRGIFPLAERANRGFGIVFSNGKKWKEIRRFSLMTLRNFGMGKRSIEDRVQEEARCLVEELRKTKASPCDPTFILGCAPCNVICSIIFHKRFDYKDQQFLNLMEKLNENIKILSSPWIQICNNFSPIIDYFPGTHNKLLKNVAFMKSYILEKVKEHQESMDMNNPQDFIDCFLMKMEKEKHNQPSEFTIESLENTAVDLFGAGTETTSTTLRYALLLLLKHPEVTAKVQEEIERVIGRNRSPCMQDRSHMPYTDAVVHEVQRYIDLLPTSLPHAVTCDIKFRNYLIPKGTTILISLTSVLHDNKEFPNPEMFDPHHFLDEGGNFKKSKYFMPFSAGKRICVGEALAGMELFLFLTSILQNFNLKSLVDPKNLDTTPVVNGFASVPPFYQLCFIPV
structure (smiles),measurement,setting,value
N#Cc1cccc(-c2nc(N3CCNCC3)c3ccccc3n2)c1,AC50,[1],39.8 µM (inconclusive)
CC(NCC(O)COC1CCC(C(C)(C)C)CC1)c1ccccc1 (centres undefined),EC50,[2],> 60 µM (not active)
same,EC50,[3],0.114 µM (active)
Cc1cc(Nc2ccc(Cl)cc2)nc(N)n1,AC50,[4]; read-out: AC50,8.91 µM (inconclusive)
same,AC50,[5],5.62 µM (inconclusive)
COc1cc(/C=N/NC(=O)c2nc3ccccn3c2C)cc(OC)c1O,EC50,[2],> 60 µM (not active)
same,EC50,[3],> 60 µM (not active)
O=C1C=C(Nc2nc(C(=O)O)cc(=O)[nH]2)c2ccccc2C1=O,AC50,[4]; read-out: AC50,3.16 µM (inconclusive)
Cc1nc(-c2ccccn2)nc(N(C)c2ccccc2)c1Cl,EC50,[2],> 60 µM (not active)
same,EC50,[3],3.26 µM (active)
COC(=O)[C@@]1(Cc2ccc(OC)cc2)[C@H]2c3cc(C(=O)N4CCCC4)n(C[C@H](O)CO)c3C[C@H]2CN1C(=O)c1ccccc1,AC50,[6],31.6 µM (inconclusive)
same,AC50,[4]; read-out: AC50,39.8 µM (inconclusive)
CCN(CC)CCN(C(=O)C1=COCCO1)c1nc2ccc(C)cc2s1,EC50,[2],> 60 µM (not active)
same,EC50,[3],0.384 µM (active)
COc1cccc(Cn2c(=O)c(C)nc3cnc(N4CCNCC4)nc32)c1,AC50,[4]; read-out: AC50,39.8 µM (inconclusive)
O=C(Nc1cc(Sc2ccccn2)cc([N+](=O)[O-])c1)c1ccc([N+](=O)[O-])cc1,AC50,[6],10 µM (inconclusive)
same,AC50,[4]; read-out: AC50,5.01 µM (inconclusive)
same,AC50,[5],7.94 µM (inconclusive)
COc1ccc(/C=N/NC(N)=S)cc1OC(=O)c1cccc2ccccc12,AC50,[6],6.31 µM (inconclusive)
Cc1cc(C(=O)CCl)c(C)n1Cc1ccco1,EC50,[2],7.2 µM (active)
same,EC50,[3],3.3 µM (active)
N=C1/C(=N/Nc2cccc(Cl)c2)C(=O)NN1c1ccccc1,AC50,[6],1.26 µM (inconclusive)
COc1ccc(C(=O)c2c[nH]c(C(=O)NCc3cccs3)c2)cc1,AC50,[6],0.251 µM (inconclusive)
CCCCNC(=O)C1CC(=O)N(c2ccc(OC)cc2)C1c1ccc(OC)cc1 (centres undefined),AC50,[1],15.8 µM (inconclusive)
same,AC50,[6],25.1 µM (inconclusive)
same,AC50,[4]; read-out: AC50,25.1 µM (inconclusive)
CCCc1ccc(Oc2cc(C)nc(N3CCOCC3)n2)cc1,AC50,[1],14.1 µM (inconclusive)
N=c1nc(N)nc(N)n1-c1ccc(S(N)(=O)=O)cc1,AC50,[1],3.98 µM (inconclusive)
CC[C@H](c1ccccc1)c1cc(C(C)(C)C)cc(C(C)(C)C)c1O,AC50,[6],7.94 µM (inconclusive)
same,AC50,[5],5.01 µM (inconclusive)
O=c1c(-c2ccc(F)cc2)nc2cnc(N3CCNCC3)nc2n1Cc1ccc(F)cc1,AC50,[1],20 µM (inconclusive)
same,AC50,[6],31.6 µM (inconclusive)
same,AC50,[4]; read-out: AC50,39.8 µM (inconclusive)
CCCCN1C(=O)NC(=O)/C(=C(/CC)NCCCN(C)C)C1=O,EC50,[2],> 60 µM (not active)
same,EC50,[3],0.236 µM (active)
CCOC(=O)Cn1nnc2c(sc3nc4c(c(-c5ccc(Cl)cc5)c32)CCC4)c1=O,AC50,[4]; read-out: AC50,7.08 µM (inconclusive)
CO[C@H]1C=CO[C@@]2(C)Oc3c(C)c(O)c4c(O)c(c5c(c4c3C2=O)=NC2(CCN(CC(C)C)CC2)N=5)NC(=O)C(C)=CC=C[C@H](C)[C@H](O)[C@@H](C)[C@@H](O)[C@@H](C)[C@H](OC(C)=O)[C@@H]1C,EC50,[7],< 0.06 µM (active)
same,EC50,[8],< 0.06 µM (active)
COc1ccc(C2CC(c3ccc(C)cc3)Nc3nc(N)nn32)cc1 (centres undefined),EC50,[2],> 60 µM (not active)
same,EC50,[3],7.21 µM (active)
CC(C(=O)NC1C(=O)N2C(C(=O)O)=C(CSc3nnnn3C)CSC12)n1cc(Br)cn1 (centres undefined),EC50,[7],0.101 µM (active)
same,EC50,[8],0.125 µM (active)
N#CCCn1c(=O)c(-c2ccccc2)nc2cnc(OCc3ccccc3)nc21,AC50,[4]; read-out: AC50,39.8 µM (inconclusive)
same,AC50,[5],7.94 µM (inconclusive)
C/C(CCN1CCCCc2nc(C)c(C)cc21)=N\OC[C@@H](C)[C@H](OCc1ccccc1)C(C)C,AC50,[5],3.16 µM (inconclusive)
COc1ccc(C=O)cc1COc1ccc(C)cc1[N+](=O)[O-],AC50,[1],14.1 µM (inconclusive)
same,AC50,[6],4.47 µM (inconclusive)
CNc1nc(-c2ccccc2CN(C)C)nc2ccccc12,AC50,[5],25.1 µM (inconclusive)
Cn1cccc1C(=O)N1CCC[C@@]2(CCN(Cc3nccs3)C2)C1,AC50,[1],31.6 µM (inconclusive)
same,AC50,[6],31.6 µM (inconclusive)
CCNc1ncc2nc(-c3ccc(Cl)cc3)c(=O)n(Cc3cccs3)c2n1,AC50,[1],25.1 µM (inconclusive)
same,AC50,[6],31.6 µM (inconclusive)
CCN(CC)S(=O)(=O)c1ccc(C)c(NC(=O)Cn2cnc3cc([N+](=O)[O-])ccc3c2=O)c1,EC50,[2],> 60 µM (not active)
same,EC50,[3],0.406 µM (active)
Cc1cc(-c2cc(C)c(O)c(C(C)(C)C)c2)cc(C(C)(C)C)c1O,AC50,[6],5.01 µM (inconclusive)
COc1ccc(C(=O)Nc2ccc(S(=O)(=O)N3CCOCC3)cc2)cc1OC,AC50,[1],0.00794 µM (inconclusive)
same,AC50,[6],28.2 µM (inconclusive)
same,AC50,[4]; read-out: AC50,8.91 µM (inconclusive)
N#Cc1ccccc1-c1ccc2ncnc(NCc3cccnc3)c2c1,AC50,[5],2 µM (inconclusive)
O=C(Nc1ccccc1)N1CCCC2(CCN(C(=O)c3ccco3)CC2)C1,AC50,[6],25.1 µM (inconclusive)
same,AC50,[5],15.8 µM (inconclusive)
O=S(=O)(N=C(Nc1ccccn1)c1ccccc1)c1ccc(Cl)cc1,AC50,[6],11.2 µM (inconclusive)
same,AC50,[5],1.41 µM (inconclusive)
COc1ccc(NC(=O)COC(=O)c2c3c(nc4ccccc24)CCCC3)cc1,AC50,[5],0.891 µM (inconclusive)
CCC(NC(=O)c1ccc([N+](=O)[O-])cc1[N+](=O)[O-])c1ccccc1 (centres undefined),EC50,[2],> 60 µM (not active)
same,EC50,[3],0.879 µM (active)
COc1cccc(CN(C)CC2CCCN(CCc3ccccc3C)C2)c1 (centres undefined),EC50,[2],24.6 µM (active)
same,EC50,[3],0.184 µM (active)
CC(C(=O)Nc1ccc(F)c(F)c1F)N(C)CC(=O)Nc1ccccc1Br (centres undefined),EC50,[2],> 60 µM (not active)
same,EC50,[3],1.71 µM (active)
CCCc1nn2c(O)c(C(c3ccc(C)cc3)c3c(O)n4nc(CCC)sc4nc3=O)c(=O)nc2s1,AC50,[6],12.6 µM (inconclusive)
CC(=O)OCC1=C(C(=O)O)N2C(=O)C(NC(=O)C(C)Cn3nc(C)c(Cl)c3C)C2SC1 (centres undefined),EC50,[7],3.56 µM (active)
same,EC50,[8],5.07 µM (active)
Cc1cc(N/N=C/c2ccc(Cl)cc2)nc(NCc2ccccc2)n1,EC50,[2],11.4 µM (active)
same,EC50,[3],1.82 µM (active)
Cc1ccccc1-c1cc(N(C)Cc2ccco2)ncn1,AC50,[1],39.8 µM (inconclusive)
CCCCN(Cc1ccccc1)C(=O)c1cnc2n(c1=O)CCS2,AC50,[1],31.6 µM (inconclusive)
same,AC50,[6],8.91 µM (inconclusive)
CCN(CC)CCNC(=O)Cn1nc(-c2ccc(C)cc2)ccc1=O,AC50,[1],22.4 µM (inconclusive)
same,AC50,[4],inconclusive
COc1ccc(C2(C(=O)N3CCOCC3)CCCC2)cc1,AC50,[5],12.6 µM (inconclusive)
CCCCCOc1ccc(Cn2ccnc2)cc1[N+](=O)[O-],EC50,[2],> 60 µM (not active)
same,EC50,[3],2.21 µM (active)
COc1ccccc1N1CCN(C(=O)c2ccc3[nH]c4c(c3c2)CC(C)CC4)CC1 (centres undefined),EC50,[2],> 60 µM (not active)
same,EC50,[3],2 µM (active)
Cc1cc(-c2cccs2)nc(-n2cccc2)n1,AC50,[4]; read-out: AC50,5.62 µM (inconclusive)
same,AC50,[5],31.6 µM (inconclusive)
CO[C@H]1COC(=O)[C@@H](Cc2ccccc2)NC(=O)[C@@H](C)COC(=O)C/C=C\[C@@H]1C,AC50,[5],6.31 µM (inconclusive)
Cc1ccc(C)c(N2CCN(C(=O)c3ccc(Cn4c(=O)[nH]c5ccccc5c4=O)cc3)CC2)c1,EC50,[2],> 60 µM (not active)
same,EC50,[3],0.687 µM (active)
COc1ccc(-c2nnn(CC(=O)NCCc3c[nH]c4ccccc34)n2)cc1OC,AC50,[1],0.0126 µM (inconclusive)
CC(=O)N(NC(=O)c1ccccc1Cl)C1CC(=O)N(c2ccc(C)cc2)C1=O (centres undefined),AC50,[6],14.1 µM (inconclusive)
same,AC50,[4]; read-out: AC50,1 µM (inconclusive)
same,AC50,[5],20 µM (inconclusive)
O=C(NCCc1ccccc1)C(=O)NN=C1CCCC1,AC50,[4]; read-out: AC50,0.355 µM (inconclusive)
same,AC50,[5],31.6 µM (inconclusive)
COc1cccc(Cn2c(=O)c(-c3cccc(C#N)c3)nc3cnc(N4CCN(C)CC4)nc32)c1,AC50,[5],25.1 µM (inconclusive)
Cc1ccc(S(=O)(=O)N(C)CC(=O)ONC(=N)c2ccccn2)cc1,AC50,[4],inconclusive
same,AC50,[5],22.4 µM (inconclusive)
